Measurements: PubChem BioAssay (NCI)
Values joined by “and” are separate entries in the source; they are usually repeats but may differ in a detail not shown here. Equal entries are not always repeated.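 Compound exposure: 48 hours, 5 concentrations, 96-well plates. GI50 is the concentration that inhibits growth by half. The concentration for full growth arrest is given as TGI.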 *1 amine or outer side, *2 acyl side, *3 side chain or, on linkers, in order; H or OH if unused. Where a SMILES comes first, the peptide text is derived from it. CO = O=C([*:1])[*:2]

Legend:
Assay in all cases: inhibition of tumour cell growth, NCI panel, 48 h
DU-145 prostate = system: DU-145 prostate
IGROV1 ovarian = system: IGROV1 ovarian
MCF7 breast = system: MCF7 breast
NCI-H522 lung = system: NCI-H522 lung
RPMI-8226 leukemia = system: RPMI-8226 leukemia
RXF 393 renal = system: RXF 393 renal
SF-268 CNS = system: SF-268 CNS
T-47D breast = system: T-47D breast
UACC-257 melanoma = system: UACC-257 melanoma
HS 578T breast = system: HS 578T breast

| Structure (SMILES) | GI50 (DU-145 prostate) | TGI (DU-145 prostate) | GI50 (IGROV1 ovarian) [µM] | TGI (IGROV1 ovarian) [µM] | GI50 (MCF7 breast) [µM] | TGI (MCF7 breast) [µM] | GI50 (NCI-H522 lung) | TGI (NCI-H522 lung) | GI50 (RPMI-8226 leukemia) | TGI (RPMI-8226 leukemia) | GI50 (RXF 393 renal) | TGI (RXF 393 renal) | GI50 (SF-268 CNS) | TGI (SF-268 CNS) | GI50 (T-47D breast) | TGI (T-47D breast) | GI50 (UACC-257 melanoma) | TGI (UACC-257 melanoma) | GI50 (HS 578T breast) [µM] | TGI (HS 578T breast) [µM] |
| --- | --- | --- | --- | --- | --- | --- | --- | --- | --- | --- | --- | --- | --- | --- | --- | --- | --- | --- | --- | --- |
| Cc1cc2c(cc1C)[n+](=O)c(C(=O)c1cccs1)c(C(F)(F)F)n2[O-] | 1.05 µM and 2.15 µM | 4.12 µM and 6.87 µM | 0.683 | 5.31 | 2.31 | 12.6 | 2.29 µM and 2.17 µM | 15.5 µM and 8.26 µM | 1.04 µM and 2.84 µM | 8.01 µM and 30.6 µM | 19.7 µM and 9.21 µM | 50 µM and 29.3 µM | 1.12 µM and 0.978 µM | 4.11 µM and 3.61 µM | 7.74 µM and 4.47 µM | 50 µM and 29.8 µM | 2.4 µM and 2.61 µM | 38 µM and 6.55 µM |  |  |
| COc1ccc2c(c1)C(=O)c1c-2c(N2CCN(C(=O)CN(C)C)CC2)nc2ccccc12 | 14.8 µM | 35.2 µM | 10 | 26.4 | 12.3 | 27.6 | 13.7 µM | 30.6 µM | 10.7 µM | 28.6 µM |  |  | 17.3 µM | 44.3 µM | 16.2 µM | 34.1 µM | 12.1 µM | 30.3 µM | 11.6 | 31.9 |
| C=C1C(=O)O[C@H]2[C@H]1CC/C(COC(=O)N[C@@H](Cc1c[nH]c3ccccc13)C(=O)OC)=C\CC[C@@]1(C)O[C@@H]21 | 1.08 µM | 2.44 µM | 1.22 | 2.67 |  |  | 1.31 µM | 2.84 µM | 0.527 µM | 2.71 µM | 0.998 µM | 2.29 µM | 2.25 µM | 6.67 µM | 1.84 µM | 4.39 µM | 1.86 µM | 3.97 µM | 4.62 | 28.5 |
| COc1ccc(C(=O)O)c2c(=O)c3ccccc3[nH]c12 |  |  |  | > 100 |  |  |  | > 100 µM |  | > 100 µM |  | > 100 µM |  | > 100 µM |  |  |  | > 100 µM |  |  |
| CC(C)C(NC(=O)C(CCCN=C(N)N)NC(=O)NC(Cc1ccccc1)C(=O)O)C(=O)NC(C=O)CCCN=C(N)N (stereo not drawn) ({Phe-CO}-Arg-Val-Arg-aldehyde; configuration not given here) | > 5 µM | > 5 µM | > 5 | > 5 | > 5 | > 5 | > 5 µM | > 5 µM |  |  |  |  | > 5 µM | > 5 µM | > 5 µM | > 5 µM | > 5 µM | > 5 µM | > 5 | > 5 |
| N#C/C(=C\c1ccc(Br)cc1)n1nnc2cc(F)c(F)cc21 |  |  | 1.74 | 3.77 |  |  | 1.35 µM | 3.25 µM | 2.01 µM | 4.76 µM | 1.37 µM | 2.77 µM |  |  | 1.27 µM | 4.08 µM |  |  | 2.71 | 8.3 |
| O=C(Nc1ccc(N=Nc2ccccc2)cc1)Sc1ccccc1C(=O)O |  |  |  | 2.48 |  |  |  | > 100 µM |  | > 100 µM |  | > 100 µM |  | > 100 µM |  |  |  | > 100 µM |  |  |
| CCC12CC[C@H](C#N)N3CCc4c(n(c5ccccc45)C(=O)C1)C32 (some centres undefined) |  |  |  | 63.3 |  |  |  |  |  | 48.9 µM |  | 29.6 µM |  | 53.7 µM |  |  |  | 32.9 µM |  |  |
| COC1=CC(C)C2C[C@H]3O[C@H](O)C[C@H]4C(C)C(=O)C(O)C([C@@]2(C)C1=O)[C@@]34C (some centres undefined) |  |  |  | > 100 |  |  |  | > 100 µM |  | > 100 µM |  | > 100 µM |  |  |  |  |  | > 100 µM |  |  |
